Laboratory results from ChEMBL document CHEMBL5696441 (Nat Chem Biol, 2011).

What was measured:
[1] = biological target: Mitogen-activated protein kinase 8 (Homo sapiens) (UniProt P45983); test: Inhibition of JNK1 (unknown origin) assessed as remaining activity at 1 uM by Kinome scan method relative to control
[2] = biological target: T1, Serine/threonine-protein kinase Chk1 (Homo sapiens) (UniProt O14757); test: Inhibition of CHEK1 (unknown origin) assessed as remaining activity at 1 uM by Kinome scan method relative to control
T1 sequence (whole entry): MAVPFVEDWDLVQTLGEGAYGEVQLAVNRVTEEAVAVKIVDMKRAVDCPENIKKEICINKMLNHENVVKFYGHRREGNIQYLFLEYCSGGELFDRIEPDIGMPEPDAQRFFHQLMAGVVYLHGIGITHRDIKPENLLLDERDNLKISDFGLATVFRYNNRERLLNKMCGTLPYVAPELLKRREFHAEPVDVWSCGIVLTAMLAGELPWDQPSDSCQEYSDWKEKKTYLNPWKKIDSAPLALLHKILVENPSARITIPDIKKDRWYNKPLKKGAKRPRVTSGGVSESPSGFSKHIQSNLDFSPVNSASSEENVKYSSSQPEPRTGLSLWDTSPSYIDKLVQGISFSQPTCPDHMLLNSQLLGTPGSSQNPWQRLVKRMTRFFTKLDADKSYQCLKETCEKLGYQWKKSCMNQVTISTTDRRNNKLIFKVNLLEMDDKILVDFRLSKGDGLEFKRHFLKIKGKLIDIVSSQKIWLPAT

[3] = biological target: Ankyrin repeat and protein kinase domain-containing protein 1 (Homo sapiens) (UniProt Q8NFD2); test: Inhibition of ANKK1 (unknown origin) assessed as remaining activity at 1 uM by Kinome scan method relative to control
Ankyrin repeat and protein kinase domain-containing protein 1 (Homo sapiens), sequence (Q8NFD2 whole entry, the tested form may be a part): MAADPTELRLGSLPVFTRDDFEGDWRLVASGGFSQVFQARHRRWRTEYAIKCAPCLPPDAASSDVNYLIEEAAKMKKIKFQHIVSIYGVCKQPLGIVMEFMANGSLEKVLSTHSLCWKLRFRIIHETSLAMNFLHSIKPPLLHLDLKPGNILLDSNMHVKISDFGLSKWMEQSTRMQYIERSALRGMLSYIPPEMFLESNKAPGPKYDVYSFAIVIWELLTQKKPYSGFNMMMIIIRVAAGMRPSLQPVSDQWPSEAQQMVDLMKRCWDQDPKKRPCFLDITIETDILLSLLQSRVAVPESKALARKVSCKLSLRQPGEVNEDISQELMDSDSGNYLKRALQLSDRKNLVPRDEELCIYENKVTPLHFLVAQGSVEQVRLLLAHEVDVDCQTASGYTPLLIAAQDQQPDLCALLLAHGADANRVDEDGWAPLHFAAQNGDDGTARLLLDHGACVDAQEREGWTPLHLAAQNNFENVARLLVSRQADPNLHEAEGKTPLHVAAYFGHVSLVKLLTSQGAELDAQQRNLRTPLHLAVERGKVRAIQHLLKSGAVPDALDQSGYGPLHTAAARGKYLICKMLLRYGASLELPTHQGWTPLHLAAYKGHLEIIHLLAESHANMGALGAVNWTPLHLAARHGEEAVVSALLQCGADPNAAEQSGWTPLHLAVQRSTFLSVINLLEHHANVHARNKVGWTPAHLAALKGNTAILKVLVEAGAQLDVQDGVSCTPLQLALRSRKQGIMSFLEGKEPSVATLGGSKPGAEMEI

[4] = biological target: Myosin light chain kinase 2, skeletal/cardiac muscle (Homo sapiens) (UniProt Q9H1R3); test: Inhibition of MYLK2 (unknown origin) assessed as remaining activity at 1 uM by Kinome scan method relative to control
Myosin light chain kinase 2, skeletal/cardiac muscle (Homo sapiens), sequence (Q9H1R3 whole entry): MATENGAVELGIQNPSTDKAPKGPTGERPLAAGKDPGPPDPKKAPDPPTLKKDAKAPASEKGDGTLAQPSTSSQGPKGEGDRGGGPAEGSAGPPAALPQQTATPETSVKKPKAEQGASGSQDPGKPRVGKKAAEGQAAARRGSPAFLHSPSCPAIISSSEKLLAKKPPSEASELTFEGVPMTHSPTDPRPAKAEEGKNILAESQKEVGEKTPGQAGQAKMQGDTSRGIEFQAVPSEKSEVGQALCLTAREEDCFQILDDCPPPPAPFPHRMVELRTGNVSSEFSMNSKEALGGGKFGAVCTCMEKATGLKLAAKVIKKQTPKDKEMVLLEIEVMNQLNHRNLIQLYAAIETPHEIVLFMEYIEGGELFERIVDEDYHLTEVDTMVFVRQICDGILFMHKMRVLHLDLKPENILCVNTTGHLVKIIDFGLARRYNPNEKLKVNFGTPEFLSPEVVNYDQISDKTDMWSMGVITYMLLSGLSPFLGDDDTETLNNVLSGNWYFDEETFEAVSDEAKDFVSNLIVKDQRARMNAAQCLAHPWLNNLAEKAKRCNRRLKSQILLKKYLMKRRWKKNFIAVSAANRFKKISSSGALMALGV

[5] = biological target: T2, Ephrin type-A receptor 1 (Homo sapiens) (UniProt P21709); test: Inhibition of EPHA1 (unknown origin) assessed as remaining activity at 1 uM by Kinome scan method relative to control
T2 sequence (whole entry): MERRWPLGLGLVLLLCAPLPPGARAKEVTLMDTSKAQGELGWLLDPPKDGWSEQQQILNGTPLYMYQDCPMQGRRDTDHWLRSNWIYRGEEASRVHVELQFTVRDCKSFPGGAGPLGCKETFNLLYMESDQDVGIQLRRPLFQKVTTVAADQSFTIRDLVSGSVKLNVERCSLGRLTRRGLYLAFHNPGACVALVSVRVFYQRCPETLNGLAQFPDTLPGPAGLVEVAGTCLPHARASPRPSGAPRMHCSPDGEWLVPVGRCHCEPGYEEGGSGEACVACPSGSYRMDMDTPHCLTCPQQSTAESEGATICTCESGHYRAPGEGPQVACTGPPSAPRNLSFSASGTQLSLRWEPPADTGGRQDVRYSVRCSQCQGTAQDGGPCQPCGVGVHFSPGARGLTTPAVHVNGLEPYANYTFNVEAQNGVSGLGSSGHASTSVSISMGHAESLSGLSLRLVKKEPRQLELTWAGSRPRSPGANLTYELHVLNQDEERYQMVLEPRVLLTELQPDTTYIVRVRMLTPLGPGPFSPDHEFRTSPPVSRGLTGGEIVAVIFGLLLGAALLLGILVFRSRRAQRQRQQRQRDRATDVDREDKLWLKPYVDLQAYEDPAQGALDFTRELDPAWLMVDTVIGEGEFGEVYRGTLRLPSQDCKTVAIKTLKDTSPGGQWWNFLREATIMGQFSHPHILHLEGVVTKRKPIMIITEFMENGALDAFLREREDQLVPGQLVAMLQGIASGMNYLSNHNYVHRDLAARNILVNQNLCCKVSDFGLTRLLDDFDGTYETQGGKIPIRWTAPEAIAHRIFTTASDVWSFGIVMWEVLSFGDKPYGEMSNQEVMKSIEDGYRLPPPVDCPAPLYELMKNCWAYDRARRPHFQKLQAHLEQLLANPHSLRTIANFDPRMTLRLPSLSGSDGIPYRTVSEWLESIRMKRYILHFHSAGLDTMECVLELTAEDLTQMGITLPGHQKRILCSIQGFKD

[6] = biological target: RAC-gamma serine/threonine-protein kinase (Homo sapiens) (UniProt Q9Y243); test: Inhibition of AKT3 (unknown origin) assessed as remaining activity at 1 uM by Kinome scan method relative to control
RAC-gamma serine/threonine-protein kinase (Homo sapiens), sequence (Q9Y243 whole entry): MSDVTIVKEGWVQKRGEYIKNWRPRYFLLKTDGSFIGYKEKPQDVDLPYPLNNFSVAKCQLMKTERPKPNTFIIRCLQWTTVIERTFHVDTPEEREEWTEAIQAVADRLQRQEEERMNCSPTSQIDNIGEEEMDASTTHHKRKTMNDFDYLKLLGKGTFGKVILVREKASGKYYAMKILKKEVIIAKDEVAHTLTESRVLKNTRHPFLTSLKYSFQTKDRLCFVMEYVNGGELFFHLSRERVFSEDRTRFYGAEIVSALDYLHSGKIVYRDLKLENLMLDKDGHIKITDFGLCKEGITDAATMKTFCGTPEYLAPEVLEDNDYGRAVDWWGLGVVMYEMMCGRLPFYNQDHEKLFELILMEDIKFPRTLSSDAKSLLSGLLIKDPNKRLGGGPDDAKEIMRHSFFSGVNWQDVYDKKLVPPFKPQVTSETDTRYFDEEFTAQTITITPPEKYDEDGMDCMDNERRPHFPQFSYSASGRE

[7] = biological target: Insulin receptor-related protein (Homo sapiens) (UniProt P14616); test: Inhibition of INSRR (unknown origin) assessed as remaining activity at 1 uM by Kinome scan method relative to control
[8] = biological target: T3, Tyrosine-protein kinase TXK (Homo sapiens) (UniProt P42681); test: Inhibition of TXK (unknown origin) assessed as remaining activity at 1 uM by Kinome scan method relative to control
T3 sequence (whole entry): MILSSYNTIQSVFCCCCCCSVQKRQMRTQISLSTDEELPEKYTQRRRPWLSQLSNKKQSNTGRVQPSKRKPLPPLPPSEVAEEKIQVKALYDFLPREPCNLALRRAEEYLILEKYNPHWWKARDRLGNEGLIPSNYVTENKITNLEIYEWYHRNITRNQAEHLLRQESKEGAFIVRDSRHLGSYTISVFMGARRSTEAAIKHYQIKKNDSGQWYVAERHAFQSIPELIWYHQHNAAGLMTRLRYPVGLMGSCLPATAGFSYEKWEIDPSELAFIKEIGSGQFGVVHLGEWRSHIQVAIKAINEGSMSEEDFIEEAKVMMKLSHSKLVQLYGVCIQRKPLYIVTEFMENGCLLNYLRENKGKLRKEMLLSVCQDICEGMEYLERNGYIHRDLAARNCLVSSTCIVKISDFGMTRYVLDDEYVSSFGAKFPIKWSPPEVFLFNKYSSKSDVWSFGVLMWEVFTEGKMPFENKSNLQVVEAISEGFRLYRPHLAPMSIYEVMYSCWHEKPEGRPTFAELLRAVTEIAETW

[9] = biological target: Casein kinase I isoform delta (Homo sapiens) (UniProt P48730); test: Inhibition of CSNK1D (unknown origin) assessed as remaining activity at 1 uM by Kinome scan method relative to control
Casein kinase I isoform delta (Homo sapiens), sequence (P48730 whole entry, looked up, canonical isoform): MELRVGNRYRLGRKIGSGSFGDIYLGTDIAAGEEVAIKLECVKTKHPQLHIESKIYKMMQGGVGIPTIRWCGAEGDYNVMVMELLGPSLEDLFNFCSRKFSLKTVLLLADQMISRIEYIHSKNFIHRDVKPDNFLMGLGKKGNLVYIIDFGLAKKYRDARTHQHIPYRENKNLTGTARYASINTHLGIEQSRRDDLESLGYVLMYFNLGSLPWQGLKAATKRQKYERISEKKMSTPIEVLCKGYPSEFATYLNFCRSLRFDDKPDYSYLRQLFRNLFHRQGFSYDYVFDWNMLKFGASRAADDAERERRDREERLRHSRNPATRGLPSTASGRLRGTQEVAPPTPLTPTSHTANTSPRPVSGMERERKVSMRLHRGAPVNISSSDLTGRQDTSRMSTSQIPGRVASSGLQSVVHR

[10] = tested on: Tyrosine-protein kinase ABL1 (Homo sapiens), P00519 [T315I]; test: Inhibition of ABL1 T315I mutant (unknown origin) assessed as remaining activity at 1 uM by Kinome scan method relative to control
[11] = biological target: SRSF protein kinase 2 (Homo sapiens) (UniProt P78362); test: Inhibition of SRPK2 (unknown origin) assessed as remaining activity at 1 uM by Kinome scan method relative to control
SRSF protein kinase 2 (Homo sapiens), sequence (P78362 whole entry, looked up): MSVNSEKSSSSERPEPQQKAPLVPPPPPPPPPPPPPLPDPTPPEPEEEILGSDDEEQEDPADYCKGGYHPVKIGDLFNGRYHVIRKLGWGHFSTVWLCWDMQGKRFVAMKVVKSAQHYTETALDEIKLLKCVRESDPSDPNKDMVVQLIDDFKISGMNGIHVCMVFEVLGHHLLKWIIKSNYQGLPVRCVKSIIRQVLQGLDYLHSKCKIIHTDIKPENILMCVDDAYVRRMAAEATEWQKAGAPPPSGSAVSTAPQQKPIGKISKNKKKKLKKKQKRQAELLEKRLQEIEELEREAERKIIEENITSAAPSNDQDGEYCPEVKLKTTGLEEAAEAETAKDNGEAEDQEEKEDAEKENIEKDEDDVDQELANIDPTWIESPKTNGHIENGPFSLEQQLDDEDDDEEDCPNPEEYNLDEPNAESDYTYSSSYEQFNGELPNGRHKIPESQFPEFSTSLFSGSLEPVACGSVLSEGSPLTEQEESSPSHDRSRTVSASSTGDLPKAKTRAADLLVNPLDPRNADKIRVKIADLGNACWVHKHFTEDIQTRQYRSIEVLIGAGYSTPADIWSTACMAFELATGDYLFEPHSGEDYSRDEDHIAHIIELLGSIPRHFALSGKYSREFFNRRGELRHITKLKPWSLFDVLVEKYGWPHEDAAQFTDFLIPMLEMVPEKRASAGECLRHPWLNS

[12] = biological target: Dual specificity tyrosine-phosphorylation-regulated kinase 2 (Homo sapiens) (UniProt Q92630); test: Inhibition of DYRK2 (unknown origin) assessed as remaining activity at 1 uM by Kinome scan method relative to control
Dual specificity tyrosine-phosphorylation-regulated kinase 2 (Homo sapiens), sequence (Q92630 whole entry): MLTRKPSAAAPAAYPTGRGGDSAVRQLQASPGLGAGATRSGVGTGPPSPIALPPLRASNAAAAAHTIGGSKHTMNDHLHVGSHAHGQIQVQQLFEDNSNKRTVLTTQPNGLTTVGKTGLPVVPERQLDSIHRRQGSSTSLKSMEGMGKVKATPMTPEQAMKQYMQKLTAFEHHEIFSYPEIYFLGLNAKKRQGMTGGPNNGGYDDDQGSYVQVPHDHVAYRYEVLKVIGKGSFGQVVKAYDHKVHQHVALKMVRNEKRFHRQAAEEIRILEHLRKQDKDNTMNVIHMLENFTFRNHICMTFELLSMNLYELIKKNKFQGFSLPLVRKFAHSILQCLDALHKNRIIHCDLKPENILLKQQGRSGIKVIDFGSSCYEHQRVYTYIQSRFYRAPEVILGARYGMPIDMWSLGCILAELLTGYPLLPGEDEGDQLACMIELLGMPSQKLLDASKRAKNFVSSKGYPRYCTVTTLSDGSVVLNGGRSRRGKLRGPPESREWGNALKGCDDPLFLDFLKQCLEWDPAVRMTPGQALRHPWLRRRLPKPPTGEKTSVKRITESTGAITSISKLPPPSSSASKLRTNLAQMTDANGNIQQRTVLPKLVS

Mitogen-activated protein kinase 8 (Homo sapiens), sequence (P45983 whole entry): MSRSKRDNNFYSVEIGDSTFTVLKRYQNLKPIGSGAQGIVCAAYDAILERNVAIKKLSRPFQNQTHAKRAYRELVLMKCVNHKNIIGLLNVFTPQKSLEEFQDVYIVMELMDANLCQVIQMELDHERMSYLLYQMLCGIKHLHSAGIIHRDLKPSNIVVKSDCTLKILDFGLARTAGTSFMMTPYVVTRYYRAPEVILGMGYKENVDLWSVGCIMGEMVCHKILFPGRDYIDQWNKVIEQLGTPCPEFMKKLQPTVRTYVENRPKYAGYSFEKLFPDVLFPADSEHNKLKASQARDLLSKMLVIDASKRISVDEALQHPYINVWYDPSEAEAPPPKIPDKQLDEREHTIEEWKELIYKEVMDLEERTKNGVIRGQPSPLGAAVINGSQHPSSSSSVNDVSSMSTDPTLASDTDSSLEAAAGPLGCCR

SMILES	Activity [1] [%]	Activity [2] [%]	Activity [3] [%]	Activity [4] [%]	Activity [5] [%]	Activity [6] [%]	Activity [7] [%]	Activity [8] [%]	Activity [9] [%]	Activity [10] [%]	Activity [11] [%]	Activity [12] [%]
Nc1ccccc1Nc1ccc2c(c1)CCc1ccccc1C2=O	97	86	96	87	98	88	88	90	98	83	79	75
O=C1c2ccc(Nc3ccc(F)cc3F)cc2CCc2ccc(OC[C@H](O)CO)cc21 [Skepinone-L]	75	94	99	90	91	90	100	86	100	94	95	86
